Results on 20 compounds are retold here after patent publication US5436252A, “5-aryl-3H-1,2,4-triazol-3-ones and their use in the treatment of neurodegenerative disorders” (Merrell Dow Pharmaceuticals Inc., priority 1990, dated 1995).

For data set [1] the following is noted: administration to rodents; background; cited from earlier work.
Data set [2] in a line: Antagonism of Quinolinic Acid Induced Seizures (clonic-tonic seizures after icv quinolinic acid). The class given is in vivo, mice. The conditions noted are these: for responders at 64 mg/kg / ED50: Mus musculus; for responders at 64 mg/kg: 64 mg/Kg IP, animals protected/tested, quinolinic acid 7.7 μg icv, read-out: Mice Protected 64 mg/Kg IP.
Data set [3] in a line: Hippocampal neurodegeneration after carotid artery occlusion (CA1 damage score). The class given is in vivo, Male mongolian gerbils. From the text:
Male mongolian gerbils (Tumblebrook Farms) weighing 45 to 60 gms were used for the experiments measuring hippocampal neurodegeneration after carotid artery occlusion. The gerbils were housed in small groups and allowed ad lib access to food and water prior to surgery. Following administration of drug, the gerbils were anesthetized with halothane (3.5%) and prepared for surgery.
An incision was made in the midline region of the neck and both carotid arteries were exposed and isolated from surrounding tissue. In sham operated animals the wounds were then closed and the animals were allowed to recover. In the hypoxic group the isolated carotid arteries were occluded for 5 minutes with 7 mm Mayfield aneurysm clips. Loss of blood flow to the cortex was confirmed by observation with an opthalmoscope of the blanching of the radial arteries in the retina of the ipsilateral eye. After 5 minutes the clips were removed and the gerbils were placed in their home cages and allowed to recover. After 7 days the gerbils were sacrificed by an overdose of chloral hydrate and perfused intracardially with 10 ml of 1% […] followed by 15 ml of 10% buffered formalin. […] Damage to the CA1 region was assessed by 3 observers who were blind to the previous treatment of the gerbil. This damage was assessed according to the scale below. […]

For data set [4] the following is noted: gerbils; background; cited from earlier work.
For data set [5] the following is noted: mice; background; cited from earlier work.
The mark [6] stands for this setting: 0.5 h, IP, 30', read-out: ED50 IP.

A word on the ED50: it is the dose at which the effect has come halfway, by size or by number of responders.

Like-named read-outs stand apart in the source and are kept apart here. Some results are limits rather than exact numbers.

Consider `C=C(C)[C@H]1CN[C@H](C(=O)O)[C@H]1CC(=O)O` [kainic acid], for which the “neuronal degeneration (in words)” value in data set [1] is “shown to cause neuronal degeneration”.
As for `COc1ccc(-c2nn(C)c(=O)n2C)cc1OC1CCCC1`, the responders at 64 mg/kg in data set [2] came out at 60%.
Take `CCn1c(-c2ccc(Cl)cc2)n[nH]c1=O` [4-ClC6 H4, H, C2 H5, 5-(4-Chlorophenyl)2,4-dihydro-4-ethyl-3H-1,2,4-triazol-3-one]: in data set [2] (setting [6]), the 50% effective dose (ED50) came out at 51 mg/kg.
For `Cn1c(-c2ccccc2Cl)n[nH]c1=O` [2-ClC6 H4, H, CH3, 5-(2-chlorophenyl)-2,4-dihydro-4-methyl-3H-1,2,4-triazol-3-one], the 50% effective dose (ED50) in data set [2] (setting [6]) is 64.9 mg/kg; in data set [2] (IP, 2 hr, read-out: ED50 IP) it was more than 64 mg/kg. Also, the responders at 64 mg/kg in data set [2] is 60%.
Consider `Cn1nc(-c2ccc(Cl)cc2)n(C)c1=O` [4-ClC6 H4, CH3, CH3, 5-(4-chlorophenyl)-2,4-dihydro-2,4-dimethyl-3H-1,2,4-triazol-3-one], for which the responders at 64 mg/kg in data set [2] was 80%.
Turning to `Cn1nc(-c2ccccc2)n(C)c1=O` [C6 H5, CH3, CH3], the responders at 64 mg/kg in data set [2] was 50%.
For the compound `Cn1c(-c2ccc(Cl)c(Cl)c2)n[nH]c1=O` [3,4-Cl2 C6 H3, H, CH3, 5-(3,4-dichlorophenyl)-2,4-dihydro-4-methyl-3H-1,2,4-triazol-3-one], the “Mice Protected” value in data set [2] (@ 32 mg/Kg IP, (60')) is 5/10. Further, the ED50 in data set [2] (setting [6]) is less than 8 mg/kg; in data set [2] (PO, time not given, read-out: ED50 PO), more than 16 mg/kg.
`O=C(O)c1cccnc1C(=O)O` [quinolinic acid, reference compound]: the “neuronal degeneration (in words)” value in data set [1] was “shown to cause neuronal degeneration”. Moreover, the “clonic-tonic seizures caused in otherwise untreated mice” value in data set [2] (7.7 μg in 5 μl saline icv) was 90-100%.
On to `Cn1c(-c2ccc(Cl)cc2)n[nH]c1=O` [4-ClC6 H4, H, CH3], for which the responders at 64 mg/kg in data set [2] came to 60%.
As for `CCCCOc1cc(-c2nn(C)c(=O)n2C)ccc1OC` [3-(n-C4 H9 O)--4-CH3 OC6 H3, CH3, CH3], the responders at 64 mg/kg in data set [2] was 60%.
The same measure, in the same setting: next, `Cn1c(-c2ccccc2)n[nH]c1=O` [C6 H5, H, CH3]: 50%.
Turning to `CCn1nc(-c2cccs2)n(C)c1=O` [2-Thienyl, C2 H5, CH3, 5-(2-thienyl)-2,4-dihydro-2-ethyl-4-methyl-3H-1,2,4-triazol-3-one], the ED50 in data set [2] (IP, range, time not given, printed near the Mice Protected column, read-out: ED50 IP) lay within 8 to 64 mg/kg.
Turning to `C[C@]12N[C@H](Cc3ccccc31)c1ccccc12` [MK-801, (S)-10,11-dihydro-5-methyl-5H-dibenzo(a,d)cyclohepten-5,10-imine], the “reduction of apparent damage” value in data set [3] (5 mg/kg, 30 minutes prior to ligation) is reported as 28%. Further, the “antagonism of hippocampal neurodegeneration (in words)” value in data set [4] is “antagonize hippocampal neurodegeneration after carotid artery occlusion in gerbils”. Moreover, in data set [5], the “antagonism of quinolinic acid seizures (in words)” value was “antagonize the seizures induced in mice by quinolinic acid”.
`Cn1nc(-c2ccccc2Cl)n(C)c1=O` [2-ClC6 H4, CH3, CH3]: the responders at 64 mg/kg in data set [2] came to 60%.
Turning to `CCn1c(-c2ccc(Cl)cc2)nn(C)c1=O` [4-ClC6 H4, CH3, C2 H5, 5-(4-Chlorophenyl)-2,4-dihydro-4-ethyl-2-methyl-3H-1,2,4-triazol-3-one], the reduction of damage in data set [3] (40 mg/kg i.p.) stood at 66%. In addition, the ED50 in data set [2] (setting [6]) is 25.9 mg/kg; in data set [2] (0.5 h, PO, 30', read-out: ED50 PO) it was 29.9 mg/kg; in data set [2] (1 h, IP, 60', read-out: ED50 IP) it was 17.2 mg/kg; in data set [2] (IP, 2 hr, read-out: ED50 IP), 39.2 mg/kg; in data set [2] (PO, 4 hr, read-out: ED50 PO), 52.3 mg/kg; in data set [2] (PO, 24 hr, read-out: ED50 PO), more than 128 mg/kg.
For the compound `COc1ccc(-c2n[nH]c(=O)n2C)cc1OC1CCCC1` [3-(cyclo-C5 H9 O)--4-CH3 OC6 H3, H, CH3], in data set [2], the responders at 64 mg/kg amounted to 20%.
On the same count and under the same terms, in the case of `CCCCOc1cc(-c2n[nH]c(=O)n2C)ccc1OC` [3-(n-C4 H9 O)--4-CH3 OC6 H3, H, CH3, 5-[3-(n-butoxy)-4-methoxyphenyl]-2,4-dihydro-4-methyl-3H-1,2,4-triazol-3-one] it was 70%.
As to `N[C@@H](Cn1oc(=O)[nH]c1=O)C(=O)O` [quisqualic acid], the “neuronal degeneration (in words)” value in data set [1] is listed as “shown to cause neuronal degeneration”.
Regarding `CCn1nc(-c2ccccc2)n(C)c1=O` [C6 H5, C2 H5, CH3], in data set [2], the responders at 64 mg/kg came to 50%.
On the same count and under the same terms, in the case of `Cn1c(-c2ccncc2)n[nH]c1=O` [4-Pyridyl, H, CH3, 2,4-Dihydro-4-methyl-5-(4-pyridinyl)-3H-1,2,4-triazol-3-one] it was 30%.
